Where two headings read alike, the source gives them in different places.
Tests used:
[1] = target: hAMY1R (Homo sapiens, UniProt O60894+P30988); assay: Species-specific cAMP assay, hAMY1R; details: ratio of cAMP EC50 values, human receptors
[2] = test system: cAMY3R; assay: Species-specific cAMP assay, cAMY3R; details: for Ratio CTR/AMY3R (canine, functional): ratio of cAMP EC50 values, canine receptors
[3] = in vivo, iv
[4] = target: T1, rAMY3R (Rattus norvegicus, UniProt P32214+Q9JJ73); assay: Species-specific cAMP assay, rAMY3R; details: ratio of cAMP EC50 values, rat receptors
T1 sequence (P32214 25-479 isoform P32214-2 limits assumed): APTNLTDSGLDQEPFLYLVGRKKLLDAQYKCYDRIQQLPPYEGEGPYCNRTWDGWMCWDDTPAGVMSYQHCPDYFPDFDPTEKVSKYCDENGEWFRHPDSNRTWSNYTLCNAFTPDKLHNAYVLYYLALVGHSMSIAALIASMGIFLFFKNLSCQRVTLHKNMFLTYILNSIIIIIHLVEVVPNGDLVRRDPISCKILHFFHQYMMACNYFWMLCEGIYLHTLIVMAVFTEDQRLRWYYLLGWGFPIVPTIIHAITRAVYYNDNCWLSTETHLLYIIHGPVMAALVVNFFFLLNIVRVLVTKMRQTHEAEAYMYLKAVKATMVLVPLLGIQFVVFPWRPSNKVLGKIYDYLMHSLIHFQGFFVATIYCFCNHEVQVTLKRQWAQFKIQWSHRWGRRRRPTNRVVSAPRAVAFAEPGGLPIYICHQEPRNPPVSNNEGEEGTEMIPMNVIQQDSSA
T1 sequence (Q9JJ73 23-147 partner): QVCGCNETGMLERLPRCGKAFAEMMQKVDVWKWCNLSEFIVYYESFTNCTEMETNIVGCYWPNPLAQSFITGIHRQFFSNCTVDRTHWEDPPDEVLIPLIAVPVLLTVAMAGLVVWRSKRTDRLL

[5] = target: T2, rat CTR (Rattus norvegicus, UniProt P32214); assay: cAMP FlashPlate assay, rat CTR; format: cell-based; details: cAMP (rat receptor assay)
T2 construct: expressed in transfected cells; host or cells: BHK tk-ts 13, transient (FuGENE 6)
T2 sequence (P32214 25-479 isoform P32214-2 limits assumed): T1 sequence (P32214 25-479 isoform P32214-2 limits assumed)

[6] = target: T3, hCTR (Homo sapiens, UniProt P30988); assay: scintillation proximity binding assay, hCTR membranes; set-up: expressed in transfected cells; host or cells: BHK tk-ts 13, transient (FuGENE 6); membranes for the SPA, whole cells for the species-specific assays
T3 sequence (P30988 25-474): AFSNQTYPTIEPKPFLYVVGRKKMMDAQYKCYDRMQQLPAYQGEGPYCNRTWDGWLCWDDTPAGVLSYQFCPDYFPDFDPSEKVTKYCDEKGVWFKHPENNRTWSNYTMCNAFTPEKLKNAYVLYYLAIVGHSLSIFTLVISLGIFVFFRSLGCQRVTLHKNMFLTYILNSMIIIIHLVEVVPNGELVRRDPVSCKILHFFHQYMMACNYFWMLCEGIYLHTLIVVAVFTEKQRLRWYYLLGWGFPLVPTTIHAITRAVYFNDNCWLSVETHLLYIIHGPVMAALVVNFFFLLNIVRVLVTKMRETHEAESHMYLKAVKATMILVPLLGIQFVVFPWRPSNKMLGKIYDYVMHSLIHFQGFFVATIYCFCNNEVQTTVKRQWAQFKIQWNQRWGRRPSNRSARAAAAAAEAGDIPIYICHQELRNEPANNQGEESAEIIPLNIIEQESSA
Description: (§1) The apparent binding affinities were determined using a scintillation proximity assay with beads from PerkinElmer and cell membranes containing the AMY3R or CTRs. […] Membranes were harvested and membranes were prepared and kept at −80 °C until use. The assay was performed in a 384-well Optiplate (PerkinElmer). Membranes were mixed with scintillation proximity assay beads in a 1:1 ratio. […] Samples were analyzed on a TopCounter (Packard). The IC50 values were calculated using GraphPad Prism. See Supporting Information S7: SAR Screening Assay Methods (Binding Assays (Human and Rat)) for more information.
(§2) Binding Assays (Human and Rat). Brief descriptions of the methods used to determine binding affinities for SAR analysis are described below. Curves and IC50 values were plotted and calculated in GraphPad Prism using nonlinear regression (one site binding competition analysis), with pIC50 values […]
(§3) values were used to calculate the binding affinity ratios in order to express the selectivity of compounds for the AMY3R versus the CTR.
(§4) CTR Binding Assay. The binding assay was performed using scintillation proximity assay (SPA) beads (RPNQ0001) from PerkinElmer and cell membranes containing either the hCTR or rCTR. BHK […]
(§5) Membranes were prepared in the following way: the cells were rinsed with PBS and incubated with Versene for approximately 5 min before harvesting. The cells were flushed with PBS and the cell-suspension was centrifuged for 5 min at 1000 rpm. Cells were homogenized (Ultra Turrax) in a buffer […]
(§6) containing 20 mM Na-HEPES and 0.1 mM EDTA (pH 7.4, buffer 2). The resulting pellet was re-suspended in buffer 2 and protein concentration was measured (BCA protein assay, Pierce). The homogenate was kept cold during the whole procedure. The membranes were stored at –80 °C until […]
(§7) The binding assay was performed in a 384-well Optiplate (PerkinElmer) in a total volume of 40 μL.
(§8) Membranes were mixed with SPA beads in a 1:1 ratio. […]
(§9) mg/well. Test compounds were dissolved in DMSO and further diluted in assay buffer (50 mM HEPES, pH 7.4, 1 mM CaCl2, 5 mM MgCl2, 0.1% ovalbumin, and 0.02% Tween-20).
(§10) Calcitonin (NEX422 PerkinElmer) was dissolved in assay buffer and added to the Optiplate at a final […]
(§11) prior to centrifugation (1500 rpm, 10 min). Samples were analyzed on TopCounter (Packard).

[7] = target: T4, rCTR (Rattus norvegicus, UniProt P32214); assay: scintillation proximity binding assay, rCTR membranes
T4 construct: expressed in transfected cells; host or cells: BHK tk-ts 13, transient (FuGENE 6)
T4 sequence (P32214 25-479 isoform P32214-2 limits assumed): T1 sequence (P32214 25-479 isoform P32214-2 limits assumed)
Description: as §1, §2, §3, §4, §5, §6, §7, §8, §9, §10, §11

[8] = Tables S12 and S14, read-out: rCTR pEC50 (converted)
[9] = transiently transfected BHK tk-ts 13 cells, FlashPlate, 30 min room temperature, 2% HSA, read-out: rCTR EC50
[10] = SPA binding assay, Tables S13 and S15, read-out: hCTR pIC50 (converted)
[11] = SPA, BHK cell membranes, 125I-Calcitonin 75 pM, 120 min 25 °C, read-out: hCTR IC50
[12] = SPA binding assay, Tables S13 and S15, read-out: rCTR pIC50 (converted)
[13] = SPA, BHK cell membranes, 125I-Calcitonin 75 pM, 120 min 25 °C, read-out: rCTR IC50

Sequence of hAMY1R (O60894 27-148 partner, one chain of several): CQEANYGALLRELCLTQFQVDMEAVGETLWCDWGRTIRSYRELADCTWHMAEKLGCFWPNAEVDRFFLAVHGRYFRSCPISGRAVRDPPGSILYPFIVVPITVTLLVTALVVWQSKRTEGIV

EC50 [5, 8] [nM]	EC50 [5, 9] [nM]	IC50 [6, 10] [nM]	IC50 [6, 11] [nM]	IC50 [7, 12] [nM]	IC50 [7, 13] [nM]	Structure (SMILES)	Ratio CTR/AMY1R (human, functional) [1]	cAMY3R pEC50 ([2]; cAMP HTRF, transiently transfected BHK cells, 30 min room temperature, five experiments)	Ratio CTR/AMY3R (canine, functional) [2]	Ratio CTR/AMY3R (canine, functional) ([2]; listed as NN1213/peptide 21)	terminal plasma half-life (T1/2), rabbit [3]	Ratio CTR/AMY3R (rat, functional) [4]
						CC[C@H](C)[C@H](NC(=O)[C@H](C)NC(=O)CNC(=O)[C@H](Cc1ccccc1)NC(=O)[C@H](CC(N)=O)NC(=O)[C@@H]1CCCN1C(=O)[C@H](CO)NC(=O)[C@H](CO)NC(=O)[C@H](Cc1c[nH]cn1)NC(=O)[C@H](CCCNC(=N)N)NC(=O)[C@H](CC(C)C)NC(=O)[C@H](Cc1ccccc1)NC(=O)[C@H](CC(=O)O)NC(=O)[C@H](C)NC(=O)[C@H](CC(C)C)NC(=O)[C@H](CCCNC(=N)N)NC(=O)[C@H](CCC(N)=O)NC(=O)[C@@H](NC(=O)[C@H](C)NC(=O)[C@@H]1CSSC[C@H](NC(=O)[C@@H](N)CCCCNC(=O)CC[C@H](NC(=O)CC[C@H](NC(=O)CCCCCCCCCCCCCCCCCCC(=O)O)C(=O)O)C(=O)O)C(=O)N[C@@H](CC(N)=O)C(=O)N[C@@H]([C@@H](C)O)C(=O)N[C@@H](C)C(=O)N[C@@H]([C@@H](C)O)C(=O)N1)[C@@H](C)O)C(=O)N1CCC[C@H]1C(=O)N[C@@H](CO)C(=O)N[C@@H](CO)C(=O)N[C@H](C(=O)N[C@@H](CC(N)=O)C(=O)N[C@H](C(=O)NCC(=O)N[C@@H](CO)C(=O)N[C@@H](CCCNC(=N)N)C(=O)N[C@H](C(=O)N[C@@H](Cc1ccc(O)cc1)C(N)=O)[C@@H](C)O)C(C)C)[C@@H](C)O [NN1213]	32	9.74	2	3	approximately 50 h	144
17	16.8	14.1	14.1	50.1	49.8	CC[C@H](C)[C@H](NC(=O)[C@H](C)NC(=O)CNC(=O)[C@H](Cc1ccccc1)NC(=O)[C@H](CC(N)=O)NC(=O)[C@@H]1CCCN1C(=O)[C@H](CO)NC(=O)[C@H](CO)NC(=O)[C@H](Cc1c[nH]cn1)NC(=O)[C@H](CCCNC(=N)N)NC(=O)[C@H](CC(C)C)NC(=O)[C@H](Cc1ccccc1)NC(=O)[C@H](CC(N)=O)NC(=O)[C@H](C)NC(=O)[C@H](CC(C)C)NC(=O)[C@H](CCCNC(=N)N)NC(=O)[C@H](CCC(N)=O)NC(=O)[C@@H](NC(=O)[C@H](C)NC(=O)[C@@H]1CSSC[C@H](NC(=O)[C@H](CCCCN)NC(=O)CC[C@H](NC(=O)CCCCCCCCCCCCCCCCCCC(=O)O)C(=O)O)C(=O)N[C@@H](CC(N)=O)C(=O)N[C@@H]([C@@H](C)O)C(=O)N[C@@H](C)C(=O)N[C@@H]([C@@H](C)O)C(=O)N1)[C@@H](C)O)C(=O)N1CCC[C@H]1C(=O)N[C@@H](CO)C(=O)N[C@@H](CO)C(=O)N[C@H](C(=O)N[C@@H](CC(N)=O)C(=O)N[C@H](C(=O)NCC(=O)N[C@@H](Cc1c[nH]cn1)C(=O)N[C@@H](CC(N)=O)C(=O)N[C@H](C(=O)N[C@@H](Cc1ccc(O)cc1)C(N)=O)[C@@H](C)O)C(C)C)[C@@H](C)O [Peptide 17]						
37.2	37.2	42.7	42.3	56.2	55.6	CC[C@H](C)[C@H](NC(=O)[C@H](C)NC(=O)CNC(=O)[C@H](Cc1ccccc1)NC(=O)[C@H](CC(N)=O)NC(=O)[C@@H]1CCCN1C(=O)[C@H](CO)NC(=O)[C@H](CO)NC(=O)[C@H](Cc1c[nH]cn1)NC(=O)[C@H](CCCNC(=N)N)NC(=O)[C@H](CC(C)C)NC(=O)[C@H](Cc1ccccc1)NC(=O)[C@H](CC(N)=O)NC(=O)[C@H](C)NC(=O)[C@H](CC(C)C)NC(=O)[C@H](CCCNC(=N)N)NC(=O)[C@H](CCC(N)=O)NC(=O)[C@@H](NC(=O)[C@H](C)NC(=O)[C@@H]1CSSC[C@H](NC(=O)[C@@H](N)CCCCNC(=O)CC[C@H](NC(=O)CCCCCCCCCCCCCCCCCCC(=O)O)C(=O)O)C(=O)N[C@@H](CC(N)=O)C(=O)N[C@@H]([C@@H](C)O)C(=O)N[C@@H](C)C(=O)N[C@@H]([C@@H](C)O)C(=O)N1)[C@@H](C)O)C(=O)N1CCC[C@H]1C(=O)N[C@@H](CO)C(=O)N[C@@H](CO)C(=O)N[C@H](C(=O)N[C@@H](CC(N)=O)C(=O)N[C@H](C(=O)NCC(=O)N[C@@H](CO)C(=O)N[C@@H](CCCCN)C(=O)N[C@H](C(=O)N[C@@H](Cc1ccc(O)cc1)C(N)=O)[C@@H](C)O)C(C)C)[C@@H](C)O [Peptide 14]						
